# Reference: patent US8653092B2, “Tetrahydro-pyrido-pyrimidine derivatives” (Novartis AG, priority 2010, dated 2014)
# Experiments:
# PI3K alpha = PI3K alpha (Homo sapiens (Human), UniProt P42336); experiment: Enzymatic PI3K alpha isoform inhibition (lipid kinase, Kinase-Glo luminescence); assay type: biochemical; details: enzymatic assay
# PI3K delta = PI3K delta (Homo sapiens (Human), UniProt O00329); experiment: Enzymatic PI3K delta isoform inhibition (lipid kinase, Kinase-Glo luminescence); assay type: biochemical; details: enzymatic assay
# PI3K delta, sequence (O00329 other isoform, or with tags, fused parts or gaps linker GGGGGG): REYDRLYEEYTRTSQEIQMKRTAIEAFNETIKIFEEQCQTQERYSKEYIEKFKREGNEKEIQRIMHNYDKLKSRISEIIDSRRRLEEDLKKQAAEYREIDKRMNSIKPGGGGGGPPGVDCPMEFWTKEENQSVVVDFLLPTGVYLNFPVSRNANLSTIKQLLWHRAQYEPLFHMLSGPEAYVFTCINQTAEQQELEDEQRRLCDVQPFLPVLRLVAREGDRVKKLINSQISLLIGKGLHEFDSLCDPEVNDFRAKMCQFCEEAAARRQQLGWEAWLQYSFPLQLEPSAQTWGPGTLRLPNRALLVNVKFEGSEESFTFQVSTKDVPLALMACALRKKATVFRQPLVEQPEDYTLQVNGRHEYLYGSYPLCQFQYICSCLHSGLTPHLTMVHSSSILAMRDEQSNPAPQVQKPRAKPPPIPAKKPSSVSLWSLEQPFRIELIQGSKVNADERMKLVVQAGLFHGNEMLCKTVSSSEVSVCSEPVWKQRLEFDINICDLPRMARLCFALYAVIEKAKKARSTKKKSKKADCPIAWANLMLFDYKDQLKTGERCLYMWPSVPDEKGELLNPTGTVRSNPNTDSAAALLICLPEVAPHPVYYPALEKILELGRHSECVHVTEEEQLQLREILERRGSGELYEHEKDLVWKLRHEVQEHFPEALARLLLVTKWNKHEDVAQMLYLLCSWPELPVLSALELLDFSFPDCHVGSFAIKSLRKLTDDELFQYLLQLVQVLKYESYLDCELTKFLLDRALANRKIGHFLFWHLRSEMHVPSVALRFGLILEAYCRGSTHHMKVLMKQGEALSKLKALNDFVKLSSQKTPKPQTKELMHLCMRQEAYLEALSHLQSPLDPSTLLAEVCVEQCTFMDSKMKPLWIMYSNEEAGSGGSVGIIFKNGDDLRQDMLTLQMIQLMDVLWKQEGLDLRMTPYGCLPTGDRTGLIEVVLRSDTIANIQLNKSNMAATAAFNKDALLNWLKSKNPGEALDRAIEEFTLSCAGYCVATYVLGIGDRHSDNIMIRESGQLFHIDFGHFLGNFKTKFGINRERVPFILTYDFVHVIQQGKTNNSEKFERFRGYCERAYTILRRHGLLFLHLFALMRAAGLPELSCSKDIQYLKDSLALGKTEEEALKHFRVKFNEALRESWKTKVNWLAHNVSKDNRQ
# PI3K alpha, sequence (P42336 other isoform, or with tags, fused parts or gaps): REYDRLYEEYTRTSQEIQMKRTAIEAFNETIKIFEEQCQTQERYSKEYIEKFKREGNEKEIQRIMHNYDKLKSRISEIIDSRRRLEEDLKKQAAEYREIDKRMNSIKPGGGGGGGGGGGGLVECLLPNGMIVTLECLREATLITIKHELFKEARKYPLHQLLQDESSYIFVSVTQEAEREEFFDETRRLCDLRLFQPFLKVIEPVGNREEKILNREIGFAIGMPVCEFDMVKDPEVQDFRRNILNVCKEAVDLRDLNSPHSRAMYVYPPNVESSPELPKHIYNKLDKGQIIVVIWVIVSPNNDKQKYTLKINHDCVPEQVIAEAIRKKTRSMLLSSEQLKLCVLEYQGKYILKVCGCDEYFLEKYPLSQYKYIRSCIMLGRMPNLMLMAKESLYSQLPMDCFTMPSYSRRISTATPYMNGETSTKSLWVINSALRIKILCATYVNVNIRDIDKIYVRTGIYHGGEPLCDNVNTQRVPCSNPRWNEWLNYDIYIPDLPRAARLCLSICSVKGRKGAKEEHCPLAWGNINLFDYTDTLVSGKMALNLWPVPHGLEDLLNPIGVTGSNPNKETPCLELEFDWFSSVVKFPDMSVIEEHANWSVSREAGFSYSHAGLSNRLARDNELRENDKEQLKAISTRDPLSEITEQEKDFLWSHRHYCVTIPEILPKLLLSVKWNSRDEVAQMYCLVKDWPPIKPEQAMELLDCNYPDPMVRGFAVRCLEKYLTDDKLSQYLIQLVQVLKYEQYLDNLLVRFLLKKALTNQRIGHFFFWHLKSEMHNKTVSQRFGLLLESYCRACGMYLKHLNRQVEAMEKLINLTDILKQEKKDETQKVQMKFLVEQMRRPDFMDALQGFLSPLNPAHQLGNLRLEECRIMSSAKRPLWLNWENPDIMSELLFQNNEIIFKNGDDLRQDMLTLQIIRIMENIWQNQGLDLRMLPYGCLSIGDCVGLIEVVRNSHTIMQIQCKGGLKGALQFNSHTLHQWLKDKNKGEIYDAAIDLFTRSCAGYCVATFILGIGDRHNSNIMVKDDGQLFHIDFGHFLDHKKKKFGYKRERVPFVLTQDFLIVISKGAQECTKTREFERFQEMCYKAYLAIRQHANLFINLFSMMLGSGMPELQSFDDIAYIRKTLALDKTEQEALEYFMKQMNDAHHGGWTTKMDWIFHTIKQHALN
Structure (SMILES),IC50 (PI3K alpha) [nM],IC50 (PI3K delta) [nM]
"COc1ncc(N2CCc3ncnc(O[C@H]4CCN(C(=O)c5cncn5C)C4)c3C2)cc1C [Example 13, {(S)-3-[6-(6-Methoxy-5-methyl-pyridin-3-yl)-5,6,7,8-tetrahydro-pyrido[4,3-d]pyrimidin-4-yloxy]-pyrrolidin-1-yl}-(3-methyl-3H-imidazol-4-yl)-methanone]",1800,13
"CCC(=O)N1CC[C@H](Oc2ncnc3c2CN(c2cnc(OC)c(OC)c2)CC3)C1 [Example 4, 1-{(S)-3-[6-(5,6-Dimethoxy-pyridin-3-yl)-5,6,7,8-tetrahydro-pyrido[4,3-d]pyrimidin-4-yloxy]-pyrrolidin-1-yl}-propan-1-one]",1760,33
"COc1ncc(N2CCc3ncnc(O[C@H]4CCN(C(=O)c5cnoc5C)C4)c3C2)cc1C [Example 31, {(S)-3-[6-(6-Methoxy-5-methyl-pyridin-3-yl)-5,6,7,8-tetrahydro-pyrido[4,3-d]pyrimidin-4-yloxy]-pyrrolidin-1-yl}-(5-methyl-isoxazol-4-yl)-methanone]",3020,21
"COCC(=O)N1CC[C@H](Oc2ncnc3c2CN(c2cnc(OC)c(C#N)c2)CC3)C1 [Example 8, 2-Methoxy-5-{4-[(S)-1-(2-methoxy-acetyl)-pyrrolidin-3-yloxy]-7,8-dihydro-5H-pyrido[4,3-d]pyrimidin-6-yl}-nicotinonitrile]",2490,27
"COc1ncc(N2CCc3ncnc(O[C@H]4CCN(C(=O)c5ccon5)C4)c3C2)cc1C [Example 33, Isoxazol-3-yl-{(S)-3-[6-(6-Methoxy-5-methyl-pyridin-3-yl)-5,6,7,8-tetrahydro-pyrido[4,3-d]pyrimidin-4-yloxy]-pyrrolidin-1-yl}-methanone]",1970,18
"COc1ncc(N2CCc3ncnc(O[C@H]4CCN(C(=O)N(C)CCO)C4)c3C2)cc1C(F)(F)F [Example 88, (S)-3-[6-(6-Methoxy-5-trifluoromethyl-pyridin-3-yl)-5,6,7,8-tetrahydro-pyrido[4,3-d]pyrimidin-4-yloxy]-pyrrolidine-1-carboxylic acid (2-hydroxy-ethyl)-methyl-amide]",1340,34
"COc1ncc(N2CCc3ncnc(O[C@H]4CCN(C(=O)c5cnn(C)c5)C4)c3C2)cc1C#N [Example 36, 2-Methoxy-5-{4-[(S)-1-(1-methyl-1H-pyrazole-4-carbonyl)-pyrrolidin-3-yloxy]-7,8-dihydro-5H-pyrido[4,3-d]pyrimidin-6-yl}-nicotinonitrile]",4100,25
"COc1ncc(N2CCc3ncnc(O[C@H]4CCN(C(=O)c5ncoc5C)C4)c3C2)cc1C [Example 30, {(S)-3-[6-(6-Methoxy-5-methyl-pyridin-3-yl)-5,6,7,8-tetrahydro-pyrido[4,3-d]pyrimidin-4-yloxy]-pyrrolidin-1-yl}-(5-methyl-oxazol-4-yl)-methanone]",2830,40
"COc1ncc(N2CCc3ncnc(O[C@H]4CCN(C(=O)c5ccc(=O)[nH]c5)C4)c3C2)cc1C [Example 19, 5-{(S)-3-[6-(6-Methoxy-5-methyl-pyridin-3-yl)-5,6,7,8-tetrahydro-pyrido[4,3-d]pyrimidin-4-yloxy]-pyrrolidine-1-carbonyl}-1H-pyridin-2-one]",3060,33
"COc1ncc(N2CCc3ncnc(O[C@H]4CCN(C(=O)c5ccn(C)n5)C4)c3C2)cc1C#N [Example 37, 2-Methoxy-5-{4-[(S)-1-(1-methyl-1H-pyrazole-3-carbonyl)-pyrrolidin-3-yloxy]-7,8-dihydro-5H-pyrido[4,3-d]pyrimidin-6-yl}-nicotinonitrile]",7020,31
COc1ncc(N2CCc3ncnc(O[C@H]4CCN(C(=O)c5cocn5)C4)c3C2)cc1C [Example 16],1680,16
"COc1cc(N2CCc3ncnc(O[C@H]4CCN(C(=O)c5oc(C)nc5C)C4)c3C2)cnc1OC [Example 25, {(S)-3-[6-(5,6-Dimethoxy-pyridin-3-yl)-5,6,7,8-tetrahydro-pyrido[4,3-d]pyrimidin-4-yloxy]-pyrrolidin-1-yl}-(2,4-dimethyl-oxazol-5-yl)-methanone]",820,26

# Continued, values first:
IC50 (PI3K alpha) [nM],IC50 (PI3K delta) [nM],Structure (SMILES)
661,5,"COc1ncc(N2CCc3ncnc(O[C@H]4CCN(C(=O)c5cscn5)C4)c3C2)cc1C(F)(F)F [Example 55, {(S)-3-[6-(6-Methoxy-5-trifluoromethyl-pyridin-3-yl)-5,6,7,8-tetrahydro-pyrido[4,3-d]pyrimidin-4-yloxy]-pyrrolidin-1-yl}-thiazol-4-yl-methanone]"
58,9,"O=C(C1CCOCC1)N1CC[C@H](Nc2ncnc3c2CN(c2cncc(C(F)(F)F)c2)CC3)C1 [Example 84, (Tetrahydro-pyran-4-yl)-{(S)-3-{6-(5-(trifluoromethyl)pyridin-3-yl)-5,6,7,8-tetrahydropyrido[4,3-d]pyrimidin-4-ylamino)pyrrolidin-1-yl}-methanone]"
791,51,"CCC(=O)N1CC[C@H](Oc2ncnc3c2CN(c2cnc(OC)c(C(F)(F)F)c2)CC3)C1 [Example 63, 1-{(S)-3-[6-(6-Methoxy-5-trifluoromethyl-pyridin-3-yl)-5,6,7,8-tetrahydro-pyrido[4,3-d]pyrimidin-4-yloxy]-pyrrolidin-1-yl}-propan-1-one]"
987,44,"N#Cc1cc(N2CCc3ncnc(O[C@H]4CCN(C(=O)C5CCOCC5)C4)c3C2)cnc1N [Example 6, 2-Amino-5-{4-[(S)-1-(tetrahydro-pyran-4-carbonyl)-pyrrolidin-3-yloxy]-7,8-dihydro-5H-pyrido[4,3-d]pyrimidin-6-yl}-nicotinonitrile]"
3060,30,"COc1ncc(N2CCc3ncnc(OC4CN(C(=O)C5CCOCC5)C4)c3C2)cc1C(F)(F)F [Example 58, {3-[6-(6-Methoxy-5-trifluoromethyl-pyridin-3-yl)-5,6,7,8-tetrahydro-pyrido[4,3-d]pyrimidin-4-yloxy]-azetidin-1-yl}-(tetrahydro-pyran-4-yl)-methanone]"
7680,17,"COc1ncc(N2CCc3ncnc(O[C@H]4CCN(C(=O)C5CCN(C(C)=O)CC5)C4)c3C2)cc1C [Example 17, 1-(4-{(S)-3-[6-(6-Methoxy-5-methyl-pyridin-3-yl)-5,6,7,8-tetrahydro-pyrido[4,3-d]pyrimidin-4-yloxy]-pyrrolidine-1-carbonyl}-piperidin-1-yl)-ethanone]"
3390,9,"COc1ncc(N2CCc3ncnc(O[C@H]4CCN(C(=O)C5CCOCC5)C4)c3C2)c(OC)n1 [Example 2, {(S)-3-[6-(2,4-Dimethoxy-pyrimidin-5-yl)-5,6,7,8-tetrahydro-pyrido[4,3-d]pyrimidin-4-yloxy]-pyrrolidin-1-yl}-(tetrahydro-pyran-4-yl)-methanone]"
504,6,"COc1ncc(N2CCc3ncnc(O[C@H]4CCN(C(=O)c5cn(C)cn5)C4)c3C2)cc1C(F)(F)F [Example 53, {(S)-3-[6-(6-Methoxy-5-trifluoromethyl-pyridin-3-yl)-5,6,7,8-tetrahydro-pyrido[4,3-d]pyrimidin-4-yloxy]-pyrrolidin-1-yl}-(1-methyl-1H-imidazol-4-yl)-methanone]"
452,12,"COc1ncc(N2CCc3ncnc(O[C@H]4CCN(C(=O)N5CCC(O)CC5)C4)c3C2)cc1C(F)(F)F [Example 87, (4-Hydroxy-piperidin-1-yl)-{(S)-3-[6-(6-methoxy-5-trifluoromethyl-pyridin-3-yl)-5,6,7,8-tetrahydro-pyrido[4,3-d]pyrimidin-4-yloxy]-pyrrolidin-1-yl}-methanone]"
3410,40,"COc1ncc(N2CCc3ncnc(O[C@H]4CCN(C(=O)CC5CCOCC5)C4)c3C2)cc1C#N [Example 27, 2-Methoxy-5-{4-[(S)-1-(2-tetrahydro-pyran-4-yl-acetyl)-pyrrolidin-3-yloxy]-7,8-dihydro-5H-pyrido[4,3-d]pyrimidin-6-yl}-nicotinonitrile]"
384,12,"COc1ncc(N2CCc3ncnc(N[C@H]4CCN(C(=O)c5cnco5)C4)c3C2)cc1C [Example 78, {(S)-3-[6-(6-Methoxy-5-methyl-pyridin-3-yl)-5,6,7,8-tetrahydro-pyrido[4,3-d]pyrimidin-4-ylamino]-pyrrolidin-1-yl}-oxazol-5-yl-methanone]"
9100,28,"COc1ncc(N2CCc3ncnc(O[C@H]4CCN(C(=O)C5CCOCC5)C4)c3C2)cn1 [Example 59, {(S)-3-[6-(2-Methoxy-pyrimidin-5-yl)-5,6,7,8-tetrahydro-pyrido[4,3-d]pyrimidin-4-yloxy]-pyrrolidin-1-yl}-(tetrahydro-pyran-4-yl)-methanone]"
590,25,"Nc1ncc(N2CCc3ncnc(O[C@H]4CCN(C(=O)C5CCOCC5)C4)c3C2)cc1C(F)(F)F [Example 57, {(S)-3-[6-(6-Amino-5-trifluoromethyl-pyridin-3-yl)-5,6,7,8-tetrahydro-pyrido[4,3-d]pyrimidin-4-yloxy]-pyrrolidin-1-yl}-(tetrahydro-pyran-4-yl)-methanone]"
384,5,"COc1ncc(N2CCc3ncnc(O[C@H]4CCN(C(=O)c5cnn(C)c5)C4)c3C2)cc1C(F)(F)F [Example 54, {(S)-3-[6-(6-Methoxy-5-trifluoromethyl-pyridin-3-yl)-5,6,7,8-tetrahydro-pyrido[4,3-d]pyrimidin-4-yloxy]-pyrrolidin-1-yl}-(1-methyl-1H-pyrazol-4-yl)-methanone]"
728,16,"COc1ncc(N2CCc3ncnc(O[C@H]4CCN(C(=O)C5CNC(=O)C5)C4)c3C2)cc1C(F)(F)F (stereo partly drawn) [Example 43, 4-{(S)-3-[6-(6-Methoxy-5-trifluoromethyl-pyridin-3-yl)-5,6,7,8-tetrahydro-pyrido[4,3-d]pyrimidin-4-yloxy]-pyrrolidine-1-carbonyl}-pyrrolidin-2-one]"
